Data on nine substances can be found in patent publication US20020187925A1, “Modulating the activity of hormones or their receptors - peptides, antibodies, vaccines and uses thereof” (priority 1996, published 2002).

A short description of data set [1]: Immunisation of growing lambs with antigen in oil. It counts as in vivo. On the procedure: When this antigen was injected three times into growing lambs with the preferred delivery vehicle (oil), anti-SRIF and anti-cholecystokinin antibodies were detectable at 84 days of age. By this time, the immunised lambs had grown an average of 20% more than non-immunised lambs.

Data set [2] in a line: Example 22: pregnant pigs immunised twice in last trimester; anti-SRIF antibodies and piglet growth rates. It counts as in vivo. Conditions: for absolute growth rates of the piglets: birth to weaning, non-immunised control 165; for anti-SRIF antibodies in colostrum and milk of the sow and in blood and gut scrapings of piglets: piglets at 3 days and 21 days of age, antigen in the preferred oil. From the text:
The absolute growth rates of the piglets from birth to weaning were: […]

Data set [3] in a line: Example 23: weaning weight of piglets of immunised sows. The data set is classed as in vivo, pigs. Conditions: 21 days of age; sows immunized twice in last trimester. From the text:
Sows immunized twice in the last trimester of pregnancy with SEQ ID No 3 produced piglets which were on average 27% heavier at weaning (at 21 days of age) than the offsprings of sows immunised with SRIF 14 conjugate vaccine. The levels of anti-SRIF antibodies measured are given below: […]

The next data set deals with SRIF. In words: Example 23: levels of anti-SRIF antibodies in gut, plasma, milk. The settings on record: for Gut IgA anti-SRIF antibodies / Gut IgG anti-SRIF antibodies / Plasma IgA anti-SRIF antibodies / Plasma IgG anti-SRIF antibodies: piglets. The data set is classed as in vivo, pigs. From the text:
Sows immunized twice in the last trimester of pregnancy with SEQ ID No 3 produced piglets which were on average 27% heavier at weaning (at 21 days of age) than the offsprings of sows immunised with SRIF 14 conjugate vaccine. The levels of anti-SRIF antibodies measured are given below:
Significant quantities of antibodies to SRIF were detected in the plasma and gut scrapings of piglets sucking sows immunised with SRIF/BSA or SEQ ID NO:3 emulsified in the oil of the invention.

A short description of data set [4]: Immunisation of male pigs from 12 weeks of age. The data set is classed as in vivo. From the text: Male pigs immunised with this peptide three times from 12 weeks of age grew an average of […] faster than non-immunised pigs to 24 weeks of age, and the testicle size of the immunised pigs was approximately 50% the size of those of the non-immunised animals.

A short description of data set [5]: Solubility in sterile saline. The data set is classed as physicochemical. The settings on record: sterile physiological saline / sterile saline solutions.
Data set [6] in a line: Growth of piglets suckling dams vaccinated in last trimester of pregnancy. It counts as in vivo, pigs. Conditions: birth to weaning. From the text: Piglets suckling dams which had been vaccinated with this molecule in the last trimester of pregnancy grew an average of 40% faster from birth to weaning than did corresponding piglets which were suckling non-immunised dams.

Data set [7] can be described thus: Example 16: pregnant gilts immunised with FEEDMIZA or SRIF-conjugate; liveweight gain, feed conversion. The data set is classed as in vivo, pigs. The method, then:
This experiment was designed to measure the effects of vaccinating pregnant gilts with FEEDMIZA by the subcutaneous route during first pregnancy. Opportunity was taken to compare any response to FEEDMIZA with response to a SRIF-conjugate vaccine delivered in the same delivery vehicle as peptide No.1. For that comparison the quantity of antigen was standardised at 100 μg of SRIF in the SRIF-conjugate, and 100 μg of the FEEDMIZA antigen.
Twenty four Landrace X Large White female hybrid gilts were selected, mated and held in conventional dry sow stalls. They were randomly assigned to 3 treatment groups, viz:
The gilts were immunised by subcutaneous injection of 3 ml of the relevant antigen at the neck-on the day of mating.
The animals were held in conventional single dry sow stalls. At 30 days of pregnancy the treatment groups were reduced to 5 confirmed pregnant animals per treatment group. Subsequent vaccinations were performed at weeks 6, 9 and 12 of pregnancy. Each gilt was fed 3 kg of feed (Breedmore sow ration, Barastoc, Melbourne) each day from mating until farrowing. Each animal was weighed at mating, and at intervals of 3 weeks until farrowing.

The nature of data set [8]: Example 17: sows of Example 16 during lactation; liveweight loss. It counts as in vivo, pigs. From the text:
This experiment was a continuation of the trial of Example 16. It sought to observe the rate of liveweight gain of piglets during the lactation period up to weaning for piglets whose dams were immunised during gestation with FEEDMIZA, or with a SRIF-conjugate vaccine, using piglets being reared by non-immunised dams as controls.
Sows from Example 16 continued to be reared without any further immunisations or manipulations, with the exception that;
a) daily feed offered was increased to 6 kg per head from farrowing to weaning 21 days later.
b) 3 days after farrowing the number of piglets on each sow was reduced to 8 to ensure that each litter of pigs in the experiment was benefiting from the combined effects of the quantity of milk produced, and ingested any antibodies that might be in them, without confounding influences of varying litter sizes, social interactions, and competition for teats. Sows were weighed at weaning.
Piglets were individually identified at birth, and were weighed at birth, and each 7 days until weaning at 21 days of age. All piglets received a routine oral dose of broad spectrum antibiotic (Tribrissen Piglet Suspension, Intervet, Melbourne) at three days of age, as well as an intramuscular supplemental iron injection Pignaemia, Intervet, Melbourne)
Water was available ad libitum to sows and piglets at all times.

A short description of data set [9]: Example 18: liveweights of piglets of immunised sows. It counts as in vivo, pigs. From the text:
This experiment sought to study the effects pre-farrowing immunisation of sows with SRIF-conjugate vaccine, or FEEDMIZA vaccine on the subsequent patterns of liveweight gain of their sucking piglets to weaning at 3 weeks of age, and for the post-weaning period The experiment monitored the piglets which were the subject of the previous experiment.
The piglets (8 per litter) on each of the 5 sows in the treatment groups (non-immunised, SRIF-conjugate immunised and FEEDMZA-immunised) were individually eartagged for identification, and were weighed at birth, 7, 14, 21 days (the day of weaning) and 35 days of age (2 weeks post-weaning).
During lactation the piglets had ready access to a creep area which was warmed by an infra-red lamp, water ad libitum and creep feed granules (Barastoc, Melbourne) for the period of 18-21 days of age. They had no access to their mothers feed during the period of lactation
At weaning each litter of piglets was placed in a flatdeck weaning cage with 50% of the floor being bedding area, and 50% woven wire mesh. The cage was provided with a small silo feeder containing the same creep/weaner feed which had been offered to the piglets for the 3 days prior to weaning. Feed and fresh drinking water were offered ad libitum.

Non-standard residues stand in square brackets, D forms with d. No end group written: not given here. NMeY = CN[C@@H](Cc1ccc(O)cc1)C(=O)O

As for “A-Y-M-G-W-S-C-T-K-W-F (AYMGWSCTKWF) [SEQ ID NO:52]”, the “growth more than non-immunised lambs” value in data set [1] (by 84 days of age) amounted to 20%. Also, the “anti-SRIF and anti-cholecystokinin antibodies” value in data set [1] (lambs injected three times in oil, at 84 days of age) was “detectable”.

Take “C-F-W-K-T-C-S-G (CFWKTCSG; not fully specified (bridges); printed as C-F-W-K-T-C-S-G; cysteine pairing not given here) [SEQ ID NO:3]”: in data set [2], the “absolute growth rates of the piglets” value amounted to 275 g per day; the “anti-SRIF antibodies in colostrum and milk of the sow and in blood and gut scrapings of piglets” value (shortened to “anti-SRIF antibodies … of piglets”) is “produced anti-SRIF antibodies”. Also, the “piglets heavier at weaning than offspring of sows immunised with SRIF 14 conjugate vaccine” value in data set [3] is 27%. Also, in the data set on SRIF (DAY 3), the “Milk/colostrum IgA anti-SRIF antibodies” value was 0.026 ± 0.028 OD @ 405 nm, the “Sow's milk IgG anti-SRIF antibodies” value came to 1.4 ± 0.162 OD @ 405 nm, the “Gut IgA anti-SRIF antibodies” value is listed as 0.12 ± 0.157 OD @ 405 nm and the “Gut IgG anti-SRIF antibodies” value was found to be 0.51 ± 0.21 OD @ 405 nm. Further, in the data set on SRIF (DAY 3), the “Plasma IgA anti-SRIF antibodies” value came out at 1.43 ± 0.217 OD @ 405 nm and the “Plasma IgG anti-SRIF antibodies” value was determined as 0.9 ± 0.13 OD @ 405 nm. Further, in the data set with SRIF (DAY 21), the “Gut IgA anti-SRIF antibodies” value was found to be 0.10 ± 0.087 OD @ 405 nm, the “Gut IgG anti-SRIF antibodies” value came out at 0.123 ± 0.09 OD @ 405 nm, the “Plasma IgA anti-SRIF antibodies” value worked out at 0.567 ± 0.21 OD @ 405 nm and the “Plasma IgG anti-SRIF antibodies” value stood at 2.12 ± 0.23 OD @ 405 nm.

In the case of F-W-K-T-S-G-G (FWKTSGG) [SEQ ID NO:4], in [2], the “absolute growth rates of the piglets” value turned out to be 240 g per day; the “anti-SRIF antibodies … of piglets” value was “produced anti-SRIF antibodies”.

Consider “F-W-K-T-S-K-H-W-S-Y-G-L-R-D-G-C (FWKTSKHWSYGLRDGC) [SEQ ID NO:53]”, for which the “grew faster than non-immunised pigs” value in data set [4] (male pigs immunised three times from 12 weeks, to 24 weeks of age) turned out to be 12 weeks. Further, the “testicle size relative to non-immunised animals” value in [4] (male pigs, 24 weeks of age) is on record as “approximately 50%”.

With “F-W-K-T-S-T-K-T-S-T-K-W-F (FWKTSTKTSTKWF) [SEQ ID NO:5]”, the “anti-SRIF antibodies … of piglets” value in data set [2] is reported as “produced anti-SRIF antibodies”.

For the substance LCFWKTC [SEQ ID NO:1], in data set [5], the “solubility in sterile saline” value is “relatively soluble”.

“NMe-Y-D-T-K-V-F-C-S ([NMeY]DTKVFCS) [SEQ ID NO:51]”: the “solubility in sterile saline” value in [5] is on record as “very poorly soluble”. Moreover, the “growth of suckling piglets faster than piglets suckling non-immunised dams” value in data set [6] was determined as 40%.

For the substance “SRIF-conjugate: SRIF-conjugate vaccine delivered in the same delivery vehicle as peptide No.1 (SANSNPAMAPRERKAGCKNFFWKTFTSC; ends and bridges not checked; also: SRIF-conjugate vaccine (conjugated, site not given here))”, the “average liveweight gain per head during pregnancy” value in [7] (mating to parturition, 345 Kg feed, non-immunised 60) is given as 75 kg. Besides, the “liveweight relative to non-immunised sows” value in [7] (weeks 12 and 15 of pregnancy (SRIF: from 9 weeks)) is “at no point was this difference ever stastically significant”. In data set [8] (sows), this substance showed a Farrowing weight of 154 ± 27.68 kg and a Weaning weight of 166.4 ± 26 kg. The Weight loss in data set [8] (sows, farrowing to weaning) is recorded as 7.2. Besides, the “mean loss of liveweight of sows” value in data set [8] (three weeks lactation period, non-immunised 10.8) turned out to be 12 kg. In data set [9] (21 days of age), the “liveweights of the piglets at weaning” value worked out at 7.32 ± 1.30 kg. Further, the “Liveweights of the piglets 2 weeks after weaning” value in data set [9] (35 days of age) turned out to be 8.89 ± 1.33 kg. For the same substance, in [9] (born to immunised sows), the “mean birthweights of the piglets” value is 1.40 ± 0.29 kg.

Regarding “SRIF/BSA: SRIF 14 (native somatostatin) conjugate presented with the preferred oil [reference compound]”, in data set [2], the “absolute growth rates of the piglets” value worked out at 180 g per day; the “anti-SRIF antibodies … of piglets” value is on record as “produced anti-SRIF antibodies”. For the same substance, in the data set on SRIF (DAY 3), the “Milk/colostrum IgA anti-SRIF antibodies” value stood at 0.029 ± 0.035 OD @ 405 nm, the “Sow's milk IgG anti-SRIF antibodies” value stood at 1.6 ± 0.22 OD @ 405 nm, the “Gut IgA anti-SRIF antibodies” value is 0.189 ± 0.133 OD @ 405 nm and the “Gut IgG anti-SRIF antibodies” value is on record as 0.684 ± 0.548 OD @ 405 nm. In the data set on SRIF (DAY 3), the “Plasma IgA anti-SRIF antibodies” value is recorded as 1.067 ± 0.469 OD @ 405 nm and the “Plasma IgG anti-SRIF antibodies” value is listed as 1.38 ± 0.44 OD @ 405 nm. Further, in the data set with SRIF (DAY 21), the “Gut IgA anti-SRIF antibodies” value was found to be 0.037 ± 0.05 OD @ 405 nm, the “Gut IgG anti-SRIF antibodies” value amounted to 0.259 ± 0.18 OD @ 405 nm, the “Plasma IgA anti-SRIF antibodies” value is reported as 0.798 ± 0.49 OD @ 405 nm and the “Plasma IgG anti-SRIF antibodies” value amounted to 1.779 ± 0.13 OD @ 405 nm.
